US8748468B2, “Manufacture, compositions and uses of coagulation factor VIIa modulator” (Pharmacyclics, Inc., priority 2007, dated 2014)
“Also recorded” adds a separate entry of the source. Read-outs that look alike come from different tables or passages of the source.

What was measured:
B16F10 melanoma cells = test: Lung colonization by B16F10 melanoma cells in mice; format: in vivo; details: 1.5 h before and 4.5 h and 24 h after tumor cell inoculation, compared to control vehicle
Method: In this experiment, the compound of Formula I was administered subcutaneously 1.5 h before tumor cell inoculation, and then 4.5 h and 24 h after tumor cell inoculation. In the absence of the compound of Formula I (i.e., the vehicle alone), a substantial number of colonies formed in the majority of the inoculated mice. […] As a result, in some embodiments, the compound of Formula I inhibit the metastasis of tumor cells.
The compound of Formula I (3×50 mg/kg; 3×100 mg/kg) and a control vehicle were administered subcutaneously 1.5 hours before tumor cell inoculation and then at 4.5 hours and 24 hours after tumor cell inoculation.

[1] = tested on: Lewis lung carcinoma tumor; test: Lewis lung carcinoma tumor growth in C57BL mice; format: in vivo; details: for tumor volume compared to the control: gel formulation SC, 6, 9, 13, and 15 days after start of dosing
Method: In this example, the compound of Formula I was administered subcutaneously starting 4 days after tumor cell implantation in the mice (the two different dosing schedules are described in FIG. 2). […] As a result, the compound of Formula I inhibits the growth of tumor cells.
In a follow-up tumor suppression study, the compound of Formula I reduced Lewis lung carcinoma tumor growth in C57BL mice by approximately 50% when given twice daily at subcutaneous doses 22.5, 45, and 90 mg/kg (FIG. 3).
The compound of Formula I was administered in a gel formulation subcutaneously starting 4 days after tumor cell implantation. Tumor volume in the control experiment continued to increase from about 100 mm^3 at 6 days to above 400 mm^3 after 13 days and above 500 mm^3 after 15 days after start of dosing.

[2] = tested on: FVIIa-induced IL-8 response in MDA-MB-231 human breast cancer cells; test: FVIIa-induced IL-8 response in MDA-MB-231 human breast cancer cells; format: cell-based; details: 1 μM added to the medium; MDA-MB-231 cells incubated with FVIIa
From the text: Secretion of the chemokine IL-8 increased to over 3-fold of baseline.

[3] = Pharmacokinetics after intravenous and subcutaneous administration in cynomolgus monkeys; format: in vivo; details: for AUC(0-t): read-out: AUC 0-48
Method: A study was performed in cynomolgus monkeys with the compound of Formula I to provide information on its pharmacokinetics following intravenous and subcutaneous administration and to determine its subcutaneous bioavailability. The test compound was administered intravenously in a solution (1.76 mg/mL) composition and subcutaneously in a gel composition (107 mg/mL).

[4] = Plasma concentrations in C57BL/6 mice (LC-MS/MS); format: in vivo; details: for Drug plasma concentrations: all dose levels
Method: (§1) C57BL/6 mice were dosed with a compound of Formula I in a gel composition by subcutaneous injection twice daily for 2 days. Plasma concentrations of a compound of Formula I were measured by LC-MS/MS at select time points following doses 3 and 4. Following drug administration, plasma levels were elevated in a dose dependent manner reaching 15 ug/ml 3 hours after dose 3 at 45 mg/kg/dose. […] Maximal drug plasma levels reached greater than 30 ug/ml 2 hours following dose 4 at 45 mg/kg/dose and dropped to 13 ug/ml by 4 hours post dosing. […] Prothrombin (PT) times were measured at 0 (predose), 2, 4, and 18 hours after the 4th dose administration.

Prothrombin (PT) time = test: Prothrombin time changes in C57BL/6 mice; format: in vivo; details: 2 hours following the 4th dose, 45 mg/kg/dose, gel SC twice daily
Method: as §1

[5] = Toxicology study, 28 or 29 days subcutaneous, cynomolgus monkeys; format: in vivo; details: for NOAEL: sc
Method: Cynomolgus monkeys were administered a gel formulation of a compound of Formula I twice daily by subcutaneous injection for 28 or 29 consecutive days at a total daily dosage of 0 (vehicle), 3, 12, or 36 mg/kg/day (HED=0.96, 3.84, and 11.5 mg/kg/day, respectively).

[6] = Animal PK studies, subcutaneous bioavailability across species; format: in vivo; details: rat, dog, monkey, baboon, plasma, sc; administered subcutaneously in a solution; rats, dogs, monkeys, and baboons
[7] = Animal PK studies, subcutaneous, rat; details: in vivo, sc, subcutaneous administration, read-out: terminal half-life (t1/2) (converted)
[8] = Animal PK studies, subcutaneous, dog; format: in vivo; details: plasma, sc
Method: In dogs, the time to reach maximum plasma concentrations (Tmax) following subcutaneous injection of a compound of Formula I was 0.5 hours.

[9] = Animal PK studies, subcutaneous, monkey; details: in vivo, sc, subcutaneous administration, read-out: terminal half-life (t1/2)
[10] = Animal PK studies, subcutaneous, baboon; format: in vivo; details: plasma, sc
[11] = cynomolgus monkey, plasma, sc, Subcutaneous Gel, 10.7 mg/kg, n = 3
[12] = cynomolgus monkey, plasma, Intravenous Solution, 1.76 mg/kg, n = 4
[13] = subcutaneous administration, read-out: terminal half-life (t1/2) (converted)

N=C(N)c1ccc2nc(-c3cc(CC(=O)N[C@@H](CC(=O)O)C(=O)O)cc(-c4cc(S(N)(=O)=O)ccc4O)c3O)[nH]c2c1 [compound of Formula I]
Bl6F10 colonies formed in the lung (B16F10 melanoma cells; 3×50 mg/kg SC, 50 mg/kg): substantially fewer colonies were formed
Bl6F10 colonies formed in the lung (B16F10 melanoma cells; 3×100 mg/kg SC, 100 mg/kg): substantially fewer colonies; also recorded: the number of colonies further dropped
reduction in tumor volume ([1]; SC starting 4 days after tumor cell implantation, depending on the dosing schedule, p<0.01): ≥ 50%
reduction of Lewis lung carcinoma tumor growth ([1]; follow-up study, twice daily subcutaneous doses 22.5, 45, and 90 mg/kg): approximately 50%
tumor volume compared to the control ([1]; 100 mg/kg bid x4d followed by 60 mg/kg bid, P<0.01): a reduction in the tumor volume
tumor volume compared to the control ([1]; 150 mg/kg bid x4d followed by 90 mg/kg bid, P≦0.01): a reduction in the tumor volume
FVIIa-induced IL-8 response [2]: completely abrogated
subcutaneous Cmax as percent of the Cmax observed following intravenous dose ([3]; 10.7 mg/kg subcutaneous vs 1.76 mg/kg intravenous): 74%
half-life ([3]; cynomolgus monkey, plasma, iv, 1.76 mg/kg, Intravenous Solution, 1.76 mg/kg, n = 4, read-out: t1/2 α (converted)): 0.162 h
half-life ([3]; cynomolgus monkey, plasma, iv, 1.76 mg/kg, Intravenous Solution, 1.76 mg/kg, n = 4, read-out: t1/2 β (converted)): 2.19 h
half-life ([3]; cynomolgus monkey, plasma, iv, 1.76 mg/kg, Intravenous Solution, 1.76 mg/kg, n = 4, read-out: t1/2 γ (converted)): 7.07 h
half-life ([3]; cynomolgus monkey, plasma, sc, 10.7 mg/kg, Subcutaneous Gel, 10.7 mg/kg, n = 3, read-out: Terminal t1/2 (converted)): 7.43 h
Cmax ([3]; cynomolgus monkey, plasma, sc, Subcutaneous Gel (107 mg/mL), 10.7 mg/kg, n = 3): 11600 ng/mL
AUC(0-inf) [3, 11]: 172 µg·h/mL
CL/F [3, 11]: 1.07 mL/min/kg
Tmax [3, 11]: 3.33 h
AUC(0-t) [3, 11]: 171 µg·h/mL
bioavailability ([3]; cynomolgus monkey, plasma, sc, Subcutaneous Gel, single 10.7 mg/kg dose, n = 3, estimated, read-out: Bioavailabilty (subcutaneous)): 138 ± 33%
Cmax [3, 12]: 15700 ng/mL
MRT [3, 12]: 5.15 h
clearance [3, 12]: 1.4 mL/min/kg
AUC(0-t) [3, 12]: 21.2 µg·h/mL
Vd ([3]; cynomolgus monkey, plasma, Intravenous Solution, 1.76 mg/kg, n = 4, read-out: Vss): 0.43 L/kg
Drug plasma concentrations ([4]; 6 hours after dose 3): had dropped significantly
Drug plasma concentrations ([4]; 18 hours following dose 4): at or near baseline
Drug plasma concentration ([4]; gel SC twice daily, 2 hours following dose 4 at 22.5 mg/kg/dose): 11000 ng/mL
Maximal drug plasma level ([4]; gel SC twice daily, 2 hours following dose 4 at 45 mg/kg/dose): greater than 30 ug/ml
plasma level ([4]; gel SC twice daily, 3 hours after dose 3 at 45 mg/kg/dose): 15000 ng/mL
Drug plasma concentration ([4]; gel SC twice daily, 4 hours following dose 4 at 22.5 mg/kg/dose): stayed elevated
drug plasma level ([4]; gel SC twice daily, 4 hours post dose 4 at 45 mg/kg/dose): 13000 ng/mL
maximal change in PT time (Prothrombin (PT) time): 1.8 times baseline
sternum-bone marrow and spleen findings ([5]; cynomolgus monkey, in vivo): shifts indicative of increased erythropoiesis
kidney medulla finding ([5]; cynomolgus monkey, in vivo, 36 mg/kg/day): minimal to mild widening of the interstitium along the medullary rays
NOAEL ([5]; cynomolgus monkey, in vivo): 3 mg/kg/day
NOAEL ([5]; cynomolgus monkey, in vivo, subcutaneous administration for 28 or 29 consecutive days, read-out: NOAEL as HED): 0.96 mg/kg/day
unscheduled euthanasia ([5]; one female, 36 mg/kg/day group, abnormally high aPTT prior to dosing): euthanized after 3 days of dosing due to severe external hemorrhage
bioavailability [6]: 95 to 124%
half-life [7]: 2.67 h
half-life [8, 13]: 5.68 h
Tmax ([8]; subcutaneous injection, dogs, read-out: time to reach maximum plasma concentrations (Tmax)): 0.5 h
half-life [9]: 5.4 to 8.14 h
half-life [10, 13]: 7.21 h
Tmax ([10]; subcutaneous injection, baboons, read-out: time to reach maximum plasma concentrations (Tmax)): 2.75 h
